Structures are written as SMILES. Structures can show the parent of a compound that is named as a salt.

Consider `CCCS(=O)(=O)NCc1ccc(-c2cc3ccccc3c(N3CCN(CC)CC3)n2)cc1Cl` (as salt: hydrochloride) [Example 92, 3-(3-Chloro-4-propylsulfonylaminomethylphenyl)-1-(4-ethylpiperazin-1-yl)isoquinoline Hydrochloride], for which the melting point was 253 to 255 °C (dec.).
For `CCN1CCN(c2nc(-c3ccc(CCC(C)O)cc3)cc3ccccc23)CC1` (stereo not drawn) (as salt: oxalate) [Example 22, 1-(4-ethylpiperazin-1-yl)-3-[4-(3-hydroxybutyl)phenyl]isoquinoline oxalate] the value was 193 to 194 °C.
`CCCN1CCN(c2nc(-c3ccc(OCC(C)(C)O)cc3)cc3sccc23)CC1` (as salt: hydrochloride) [Example 289, 6-[4-(2-methyl-2-hydroxypropoxy)phenyl]-4-(4-propylpiperazin-1-yl)thieno[3,2-c]pyridine hydrochloride] came in with a melting point of 133 to 135 °C.
The figure for `CCN1CCN(c2nc(C(C)(O)c3ccc(OC)cc3)cc3ccccc23)CC1` (stereo not drawn) (as salt: oxalate) is 179 to 181 °C; for `CCN1CCN(c2nc(-c3ccc(OCCO)cc3)cc3ccsc23)CC1` (as salt: hydrochloride) [Example 259, 7-(4-ethylpiperazin-1-yl)-5-(4-hydroxyethoxyphenyl)thieno[2,3-c]pyridine Hydrochloride] it is 135 to 136 °C.
For `CCN1CCN(Cc2nc(-c3ccc(OC)cc3)cc3ccccc23)CC1` (as salt: oxalate) [Example 328, 3-(4-methoxyphenyl)-1-(4-ethylpiperazin-1-yl)methylisoquinoline oxalate] the value was 219 to 221 °C; for `CCN1CCN(c2nc(-c3ccc(N4CCC(OC)CC4)cc3)cc3ccccc23)CC1` (as salt: hydrochloride) [Example 98, 1-(4-Ethylpiperazin-1-yl)-3-[4-(4-methoxypiperidin-1-yl)phenyl]isoquinoline Trihydrochloride], 165 °C.
The figure for `CCN1CCN(c2nc(-c3cccc(OCCO)c3)cc3sccc23)CC1` (as salt: hydrochloride) [Example 284, 4-(1-ethylpiperazin-4-yl)-6-[3-(2-hydroxyethoxy)phenyl]thieno-[3,2-c]pyridine dihydrochloride] is 126 to 130 °C; for `CCN1CCN(c2nc(-c3ccc(OCCO)c(OCCO)c3)cc3ccccc23)CC1` (as salt: hydrochloride) it is 130 to 132 °C; for `CCN1CCN(c2nc(-c3ccc(C4=CCC(O)CC4)cc3)cc3ccccc23)CC1` (stereo not drawn) (as salt: hydrochloride) [Example 64, 3-[4-(4-Hydroxy-1-Cyclohexen-1-Yl)Phenyl]-1-(4-Ethylpiperazin-1-Yl)Isoquinoline Hydrochloride] it is 164 to 166 °C.
Compound `CCN1CCN(c2nc(-c3ccc([C@@H]4C[C@@H](O)CCO4)cc3)cc3ccsc23)CC1` (relative stereo) (as salt: hydrochloride) [Example 455, 7-(4-ethylpiperazin-1-yl)-5-[4-(trans-4-hydroxytetrahydropyran-2-yl)phenyl]thieno[2,3-c]pyridine dihydrochloride] came in with a melting point of 146 to 148 °C.
For `CCN1CCN(c2nc(-c3ccccc3OCCO)cc3ccccc23)CC1` (as salt: hydrochloride) [Example 18, 3-[2-(2-hydroxyethoxy)phenyl]-1-(4-ethylpiperazin-1-yl)isoquinoline hydrochloride] the value was 158 to 160 °C; for `CCNS(=O)(=O)Cc1ccc(-c2cc3ccccc3c(N3CCN(CC)CC3)n2)cc1` (as salt: hydrochloride) [Example 80, 3-(4-Ethylaminosulfonylmethylphenyl)-1-(4-Ethylpiperazin-1-Yl)Isoquinoline Hydrochloride], 154 to 156 °C; for `CCCNS(=O)(=O)c1ccc(-c2cc3ccccc3c(N3CCN(CC)CC3)n2)cc1` (as salt: hydrochloride) [Example 353, 1-(4-ethylpiperazin-1-yl)-3-[4-(N-propylsulfamoyl)phenyl]isoquinoline dihydrochloride], 226.5 to 227.5 °C (dec.).
The figure for `CCN1CCN(c2nc(-c3ccc(S(=O)(=O)CC)cc3)cc3ccccc23)CC1` (as salt: hydrochloride) [Example 366, 1-(4-ethylpiperazin-1-yl)-3-[4-(ethylsulfonyl)phenyl]isoquinoline dihydrochloride] is 150 to 151.5 °C.
The figure for `CC(C)(O)COc1ccc(-c2cc3sccc3c(N3CCN(CCc4ccccc4)CC3)n2)cc1` (as salt: hydrochloride) [Example 297, 6-[4-(2-methyl-2-hydroxypropoxy)phenyl]-4-[4-(2-phenylethyl)piperazin-1-yl]thieno[3,2-c]pyridine] is 140 to 142 °C.
The compound `CCN1CCN(c2nc(-c3ccc(OC4CCCCC4O)cc3)cc3ccccc23)CC1` (stereo not drawn) (as salt: hydrochloride) [Example 426, 1-(4-ethylpiperazin-1-yl)-3-[4-(2-hydroxycyclohexyloxy)phenyl]isoquinoline Hydrochloride] came in with a melting point of 143 to 144 °C.
For `CCN1CCN(c2nc(-c3ccc(OC[C@@H](C)O)cc3)cc3ccsc23)CC1` (as salt: hydrochloride) [Example 435, 7-(4-ethylpiperazin-1-yl)-5-[4-(2-hydroxypropoxy)phenyl]thieno[2,3-c]pyridine dihydrochloride] the value was 126 to 127 °C; for `CCN1CCN(c2nc(-c3ccc(CCNS(=O)(=O)CC)cc3)cc3ccccc23)CC1` (as salt: hydrochloride) [Example 79, 3-(4-Ethylsulfonylaminoethylphenyl)-1-(4-Ethylpiperazin-1-Yl)Isoquinoline Hydrochloride], 194 to 197 °C.
The compound `COc1ccc(-c2cc3ccccc3c(N3CCC(N4CCCCC4)CC3)n2)cc1` (as salt: hydrochloride) [Example 325, 1-[4-(piperidin-1-yl)piperidine-1-yl]-3-(4-methoxyphenyl)isoquinoline dihydrohcloride] came in with a melting point of 223 to 238 °C.
The compound `CCN1CCN(c2nc(-c3ccc(CCCO)c(OC)c3)cc3ccccc23)CC1` (as salt: hydrochloride) [Example 33, 1-(4-ethylpiperazin-1-yl)-3-[4-(3-hydroxypropyl)-3-methoxyphenyl]isoquinoline hydrochloride] gave a melting point of 123 to 124 °C.
For `CCN1CCN(c2nc(-c3ccc(CCCO)c(OC)c3)cc3ccsc23)CC1` (as salt: hydrochloride) [Example 433, 7-(4-ethylpiperazin-1-yl)-5-[4-(3-hydroxypropyl)-3-methoxyphenyl]thieno[2,3-c]-pyridine hydrochloride] the value was 114 to 115 °C.
For `CCN1CCN(c2nc(/C=C/c3ccccc3)cc3ccccc23)CC1` (as salt: hydrochloride) [Example 189, 1-(1-Ethylpiperazin-4-Yl)-3-(Trans-2-Phenylethenyl)Isoquinoline Dihydrochloride] the value was 222 to 225 °C; for `CCN1CCN(c2nc(-c3ccc(OC)cc3)cc3ccc(F)cc23)CC1` (as salt: hydrochloride) [Example 229, 1-(4-ethylpiperazin-1-yl)-7-fluoro-3-(4-methoxyphenyl)isoquinoline dihydrochloride], 220 to 225 °C.

By melting point is commonly meant the temperature, or range, at which the solid turns liquid.

The record behind these values is US6875761B2 (Eisai Co., Ltd., priority 1997, dated 2005).
